Assay results reported in publication PMC6017874, “Synthesis of New C- and N-β-D-Glucopyranosyl Derivatives of Imidazole, 1,2,3-Triazole and Tetrazole, and Their Evaluation as Inhibitors of Glycogen Phosphorylase” (Molecules : A Journal of Synthetic Chemistry and Natural …, 2018).
Where two headings read alike, the source gives them in different places. One block for each molecule: values may come before it.

Columns and labels:
[1] = target: T1, rabbit muscle glycogen phosphorylase b (RMGPb) (Oryctolagus cuniculus, UniProt P00489); test: Inhibition of rabbit muscle glycogen phosphorylase b (enzyme kinetic assay); format: biochemical; set-up: key to Inhibition: N.I.: no inhibition at 625 μM concentration; conditions: for Inhibition: N.I. = no inhibition at 625 μM concentration; for inhibition of RMGPb (in words): investigated concentration range, max 625 μM
T1 sequence (P00489 1-843): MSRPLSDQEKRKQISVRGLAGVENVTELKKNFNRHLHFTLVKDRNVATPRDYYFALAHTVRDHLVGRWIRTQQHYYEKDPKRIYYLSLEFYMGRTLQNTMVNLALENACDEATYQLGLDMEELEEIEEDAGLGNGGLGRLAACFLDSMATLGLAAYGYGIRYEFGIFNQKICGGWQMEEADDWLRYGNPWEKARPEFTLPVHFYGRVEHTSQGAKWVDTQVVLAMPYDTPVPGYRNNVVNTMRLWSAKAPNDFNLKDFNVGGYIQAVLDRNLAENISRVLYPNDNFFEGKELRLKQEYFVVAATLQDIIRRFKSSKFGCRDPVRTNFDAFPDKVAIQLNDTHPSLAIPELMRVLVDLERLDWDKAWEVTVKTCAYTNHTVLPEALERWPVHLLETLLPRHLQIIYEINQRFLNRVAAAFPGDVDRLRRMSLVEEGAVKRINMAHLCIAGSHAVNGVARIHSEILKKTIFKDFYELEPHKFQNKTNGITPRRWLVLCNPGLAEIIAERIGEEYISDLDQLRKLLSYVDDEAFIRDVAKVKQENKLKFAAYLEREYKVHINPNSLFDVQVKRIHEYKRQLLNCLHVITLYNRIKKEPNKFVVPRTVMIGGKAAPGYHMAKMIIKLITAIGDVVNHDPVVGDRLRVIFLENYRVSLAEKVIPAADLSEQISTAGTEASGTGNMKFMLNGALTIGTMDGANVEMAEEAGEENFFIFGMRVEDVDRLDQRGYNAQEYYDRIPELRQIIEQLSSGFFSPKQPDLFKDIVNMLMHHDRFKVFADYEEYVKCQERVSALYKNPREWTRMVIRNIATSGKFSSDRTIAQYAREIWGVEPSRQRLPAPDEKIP
Method: The new compounds were assayed against rabbit muscle glycogen phosphorylase b enzyme (RMGPb) as described earlier and the results are collected in Table 5. The inefficiency of C-glucopyranosyl 1,2,3-triazoles 5 (entries 4–6) as compared to the micromolar inhibition of the N-glucopyranosyl counterparts II in Table 2 came as a surprise, since the size of the heterocycle and the position of the H-bond donor and acceptor sites of the ring must not have been altered by the interchange of the substituents. A comparison of the inhibitory efficiency of N-benzoyl-β-D-gluco-pyranosylamine Ib (entry 1) with its “reversed” counterpart N-phenyl-2,6-anhydro-D-glycero-D-gulo-heptonamide 20 (shown in entry 3) results in a ratio of 38–67 (~53 as an average).

[2] = target: T1, rabbit muscle glycogen phosphorylase b (RMGPb); conditions: cited from earlier work

Inhibition ([1]; RMGPb): N.I.
Compound: OC[C@H]1O[C@@H](c2nnn(-c3ccccc3)n2)[C@H](O)[C@@H](O)[C@@H]1O [13a, 2-Phenyl-5-(β-D-glucopyranosyl)-2H-tetrazole]

Inhibition ([1]; RMGPb): N.I. | Ki ([1]; RMGPb, inhibition constants of IIb multiplied by the average factor ~53, read-out: predicted inhibition constant): 7900 to 8500 µM
Compound: OC[C@H]1O[C@@H](c2cn(-c3ccccc3)nn2)[C@H](O)[C@@H](O)[C@@H]1O [5a, 1-Phenyl-4-(β-D-glucopyranosyl)-1H-1,2,3-triazole]

Inhibition ([1]; RMGPb): N.I.
Compound: Cc1nnn([C@@H]2O[C@H](CO)[C@@H](O)[C@H](O)[C@H]2O)n1 [18e, 5-Methyl-2-(β-D-glucopyranosyl)-2H-tetrazole]

Compound: OC[C@H]1OC(c2nnn[nH]2)[C@H](O)[C@@H](O)[C@@H]1O (some centres unmarked) [VIII, 5-Glucosyltetrazole]
inhibition at 625 μM (in words) ([2]; RMGPb): No inh. at 625 μM [35] | inhibition of RMGPb (in words) [2]: inactive

Compound: Cc1nc([C@@H]2O[C@H](CO)[C@@H](O)[C@H](O)[C@H]2O)no1 [IVa]
inhibition at 625 μM (in words) ([2]; RMGPb): No inh. at 625 μM [38]

Compound: OC[C@H]1O[C@@H](c2nnc(-c3ccc4ccccc4c3)o2)[C@H](O)[C@@H](O)[C@@H]1O [IIIc]
inhibition at 625 μM ([2]; RMGPb): 10% at 625 μM [37]

Compound: Cc1nnc([C@@H]2O[C@H](CO)[C@@H](O)[C@H](O)[C@H]2O)o1 [IIIa]
Ki [2]: 212 µM

Inhibition ([1]; RMGPb): N.I. | melting point: 224 to 225 °C
Compound: OC[C@H]1O[C@@H](c2cn(-c3ccc4ccccc4c3)nn2)[C@H](O)[C@@H](O)[C@@H]1O [5b, 1-(Naphthalen-2-yl)-4-(β-D-glucopyranosyl)-1H-1,2,3-triazole]

Inhibition ([1]; RMGPb): N.I.
Compound: OC[C@H]1O[C@@H](n2nnnc2-c2ccccc2)[C@H](O)[C@@H](O)[C@@H]1O [19a, 5-Phenyl-1-(β-D-glucopyranosyl)-1H-tetrazole]

Inhibition ([1]; RMGPb): N.I.
Compound: Cn1nnnc1[C@@H]1O[C@H](CO)[C@@H](O)[C@H](O)[C@H]1O [14e, 1-Methyl-5-(β-D-glucopyranosyl)-1H-tetrazole]

Compound: O=C(Nc1ccccc1)[C@@H]1O[C@H](CO)[C@@H](O)[C@H](O)[C@H]1O [compound 20, N-phenyl-2,6-anhydro-D-glycero-D-gulo-heptonamide, reference compound]
average ratio of inhibitory efficiency of Ib to its reversed counterpart 20 ([1]; RMGPb, average of the 38–67 ratio): ~ 53 | ratio of inhibitory efficiency of Ib to its reversed counterpart 20 ([1]; RMGPb, from literature Ki values of Ib and 20): 38–67 | Ki ([2]; RMGPb): 5400 µM

Inhibition ([1]; RMGPb): N.I. | inhibition of RMGPb (in words) [1]: non-inhibitory | melting point: 273 to 274 °C
Compound: OC[C@H]1O[C@@H](n2cnc(-c3ccccc3)c2)[C@H](O)[C@@H](O)[C@@H]1O [compound 8, 1-(β-D-Glucopyranosyl)-4-phenyl-1H-imidazole]

Inhibition ([1]; RMGPb): N.I.
Compound: OC[C@H]1O[C@@H](c2cn(-c3cccc4ccccc34)nn2)[C@H](O)[C@@H](O)[C@@H]1O [5c, 1-(Naphthalen-1-yl)-4-(β-D-glucopyranosyl)-1H-1,2,3-triazole]

IC50 ([1]; RMGPb): 600 µM | Ki ([1]; RMGPb, calculated from IC50 by the Cheng-Prusoff equation, read-out: calculated Ki): 327 µM | inhibition of RMGPb (in words) [1]: very weak inhibition
Compound: OC[C@H]1O[C@@H](n2nnc(-c3ccccc3)n2)[C@H](O)[C@@H](O)[C@@H]1O [18a, 5-Phenyl-2-(β-D-glucopyranosyl)-2H-tetrazole]

Inhibition ([1]; RMGPb): N.I.
Compound: Cn1nnc([C@@H]2O[C@H](CO)[C@@H](O)[C@H](O)[C@H]2O)n1 [13e, 2-Methyl-5-(β-D-glucopyranosyl)-2H-tetrazole]

Compound: OC[C@H]1O[C@@H](c2noc(-c3ccccc3)n2)[C@H](O)[C@@H](O)[C@@H]1O [IVb]
inhibition at 625 μM ([2]; RMGPb): 10% at 625 μM [38]

Compound: OC[C@H]1O[C@@H](c2nnc(-c3ccccc3)o2)[C@H](O)[C@@H](O)[C@@H]1O [IIIb]
inhibition at 625 μM ([2]; RMGPb): 10% at 625 μM [37]
